Measured values as given in patent publication US4540700A, “Treatment of diabetic complications with certain spiro-imidazolidine-diones” (Alcon Laboratories, Inc., priority 1984, dated 1985).

Tested on: cataract formation in galactocemic rats
Test: in vivo dose response by intubation (per oral) in galactocemic rats, cataract (vacuole) formation
Set-up: species or system Charles River CD (Sprague-Dawley derived) male rats
Description: B. In vivo dose response studies were conducted to test the in vivo activity of the following compounds by intubation (per oral) in galactocemic rats on a 30% galactose diet previously described:
Stock suspensions of the test compounds and all dilutions of the compound were formulated with 0.03% by weight Tween 80.
Healthy, Charles River CD (outbred albino, Sprague-Dawley derived) male rats, aged 20-30 days, without observable ocular defects and ranging in weight from 35-45 grams, were acclimated to experimental conditions (in quarantine) for two days prior to beginning the study.
Rats were individually assigned to one of twenty-three groups according to a random number schedule. Two rats, belonging to the same drug-diet treatment group, were housed per cage. Treatment and control groups consisted of six (6) rats each with no replacement in the event of death, and were designated as follows:
Lenses of all eyes were examined with a hand-held ophthalmoscope in the early stages of cataract development and a penlight for the stages, snowflake-like, snowflake, and nuclear cataract. Lens grading occurred every day for the first ten study days, and then every other day until study Day 14.
The relative potency determination was made at 7 drug levels over half log dose intervals. The response (percent cataracts formed and/or the time to cataract formation) was plotted against mg/kg and/or moles/kg.
The study was directed to the suppression and/or elimination of the initial stages of cataract development characterized by vacuoles or snowflake-likeopacities only. It was assumed therefore that suppression and/or elimination of vacuoles or lens opacification by the test drugs affects the transport, absorption and/or metabolism of galactose in such a manner as to prevent subsequent osmotic disturbances normally leading to tissue degeneration and advanced cataract. Advanced cataract defined as stages 2-4 of the Sipple classification was assumed to be of secondary importance to the etiology of cataract inhibition.
In the event where cataract stage other than vacuole formed, such as snowflake-like opacities, this cataract was counted similarly as vacuole in percent cataract formation.
This study yielded this expected effect in the control groups.
All animals were fed Purina Laboratory Chow and water, ad libitum, for the two day acclimation period. All drugs were dosed orally by intubation using an animal feeding needle (Popper and Sons), 18 or 20 gauge, attached to a 1 or 3 ml syringe. Once the dosing time schedule was established, the schedule was followed throughout the study to compensate for any diurnal variation.
The animals were kept on a twelve hour day/night cycle. The temperature and humidity were determined each day at the scheduled dosing time of 1:00 p.m.
The animals were weighed every other day and adjustments to dosage amounts to compensate for weight gain were made each day prior to the dose time. All food was routinely withheld from all animal groups for four hours (9:00 a.m.) prior to the drug dose and restored two hours (3:00 p.m.) post-dose. Otherwise sufficient amounts of chow or diet mixture were maintained in the food hopper to allow the animals to eat ad libitum. There were two days of drug dosage with the animals remaining on Purina Laboratory Chow (Days 1 and 2). The 30% galactose diet mixture was introduced to the animals two hours post-dose on Day 3 which constituted Day 1 of the study.
All eyes were examined with a hand-held ophthalmoscope and/or penlight at the times designated in the Experimental Design section.
It has been found in previous studies that dilation of the eye with a mydriactic (i.e. Mydriacyl) is not necessary for accurate grading, due to the semi-transparent nature of the rat iris. In the early stages (i.e., grades -, ±, and +) the lens was observed by reflecting the ophthalmoscope beam off the retina back through the lens and iris. Using this technique, vacuoles appear as dark, almost opaque patches. […]

[1] = relative to Sarges Racemic, observation day 12, 95% confidence limits

O=C1NC(=O)C2(N1)c1ccccc1-c1ccc(F)cc12 (racemic) [Compound L, dl-Spiro(2-fluorofluoren-9,4'-imidazolidine)-2',5'-dione]
Percent of Rat Eyes With at Least Vacuoles Formed (4.0 mg/kg p.o., Day 8, listed as 2-fluoro): 0%
Percent of Rat Eyes With at Least Vacuoles Formed (4.0 mg/kg p.o., Day 9): 0.0%
Percent of Rat Eyes With at Least Vacuoles Formed (4.0 mg/kg p.o., Day 9, listed as 2-fluoro): 0%
Percent of Rat Eyes With at Least Vacuoles Formed (4.0 mg/kg p.o., Day 10): 0.0%
Percent of Rat Eyes With at Least Vacuoles Formed (4.0 mg/kg p.o., Day 10, listed as 2-fluoro): 0%
Percent of Rat Eyes With at Least Vacuoles Formed (4.0 mg/kg p.o., Day 12): 0.0%
Percent of Rat Eyes With at Least Vacuoles Formed (4.0 mg/kg p.o., Day 12, listed as 2-fluoro): 0%
Percent of Rat Eyes With at Least Vacuoles Formed (4.0 mg/kg p.o., Day 14): 0.0%
Percent of Rat Eyes With at Least Vacuoles Formed (4.0 mg/kg p.o., Day 14, listed as 2-fluoro): 0%
Percent of Rat Eyes With at Least Vacuoles Formed (12.6 mg/kg p.o., Day 0): 0%
Percent of Rat Eyes With at Least Vacuoles Formed (12.6 mg/kg p.o., Day 1): 0%
Percent of Rat Eyes With at Least Vacuoles Formed (12.6 mg/kg p.o., Day 2): 0%
Percent of Rat Eyes With at Least Vacuoles Formed (12.6 mg/kg p.o., Day 3): 0%
Percent of Rat Eyes With at Least Vacuoles Formed (12.6 mg/kg p.o., Day 4): 0%
Percent of Rat Eyes With at Least Vacuoles Formed (12.6 mg/kg p.o., Day 5): 0%
Percent of Rat Eyes With at Least Vacuoles Formed (12.6 mg/kg p.o., Day 6): 0.0%
Percent of Rat Eyes With at Least Vacuoles Formed (12.6 mg/kg p.o., Day 6, listed as 2-fluoro): 0%
Percent of Rat Eyes With at Least Vacuoles Formed (12.6 mg/kg p.o., Day 7): 0.0%
Percent of Rat Eyes With at Least Vacuoles Formed (12.6 mg/kg p.o., Day 7, listed as 2-fluoro): 0%
Percent of Rat Eyes With at Least Vacuoles Formed (12.6 mg/kg p.o., Day 8): 0.0%
Percent of Rat Eyes With at Least Vacuoles Formed (12.6 mg/kg p.o., Day 8, listed as 2-fluoro): 0%
Percent of Rat Eyes With at Least Vacuoles Formed (12.6 mg/kg p.o., Day 9): 0.0%
Percent of Rat Eyes With at Least Vacuoles Formed (12.6 mg/kg p.o., Day 9, listed as 2-fluoro): 0%
Percent of Rat Eyes With at Least Vacuoles Formed (12.6 mg/kg p.o., Day 10): 0.0%
Percent of Rat Eyes With at Least Vacuoles Formed (12.6 mg/kg p.o., Day 10, listed as 2-fluoro): 0%
Percent of Rat Eyes With at Least Vacuoles Formed (12.6 mg/kg p.o., Day 12): 0.0%
Percent of Rat Eyes With at Least Vacuoles Formed (12.6 mg/kg p.o., Day 12, listed as 2-fluoro): 0%
Percent of Rat Eyes With at Least Vacuoles Formed (12.6 mg/kg p.o., Day 14): 0.0%
Percent of Rat Eyes With at Least Vacuoles Formed (12.6 mg/kg p.o., Day 14, listed as 2-fluoro): 0%
Percent of Rat Eyes With at Least Vacuoles Formed (40 mg/kg p.o., Day 0): 0%
Percent of Rat Eyes With at Least Vacuoles Formed (40 mg/kg p.o., Day 1): 0%
Percent of Rat Eyes With at Least Vacuoles Formed (40 mg/kg p.o., Day 2): 0%
Percent of Rat Eyes With at Least Vacuoles Formed (40 mg/kg p.o., Day 3): 0%
Percent of Rat Eyes With at Least Vacuoles Formed (40 mg/kg p.o., Day 4): 0%
Percent of Rat Eyes With at Least Vacuoles Formed (40 mg/kg p.o., Day 5): 0%
Percent of Rat Eyes With at Least Vacuoles Formed (40 mg/kg p.o., Day 6): 0.0%
Percent of Rat Eyes With at Least Vacuoles Formed (40 mg/kg p.o., Day 6, listed as 2-fluoro): 0%
Percent of Rat Eyes With at Least Vacuoles Formed (40 mg/kg p.o., Day 7): 0.0%
Percent of Rat Eyes With at Least Vacuoles Formed (40 mg/kg p.o., Day 7, listed as 2-fluoro): 0%
Percent of Rat Eyes With at Least Vacuoles Formed (40 mg/kg p.o., Day 8): 0.0%
Percent of Rat Eyes With at Least Vacuoles Formed (40 mg/kg p.o., Day 8, listed as 2-fluoro): 0%
Percent of Rat Eyes With at Least Vacuoles Formed (40 mg/kg p.o., Day 9): 0.0%
Percent of Rat Eyes With at Least Vacuoles Formed (40 mg/kg p.o., Day 9, listed as 2-fluoro): 0%
Percent of Rat Eyes With at Least Vacuoles Formed (40 mg/kg p.o., Day 10): 0.0%
Percent of Rat Eyes With at Least Vacuoles Formed (40 mg/kg p.o., Day 10, listed as 2-fluoro): 0%
Percent of Rat Eyes With at Least Vacuoles Formed (40 mg/kg p.o., Day 12): 0.0%
Percent of Rat Eyes With at Least Vacuoles Formed (40 mg/kg p.o., Day 12, listed as 2-fluoro): 0%
Percent of Rat Eyes With at Least Vacuoles Formed (40 mg/kg p.o., Day 14): 0.0%
Percent of Rat Eyes With at Least Vacuoles Formed (40 mg/kg p.o., Day 14, listed as 2-fluoro): 0%
activity in vivo relative to the Sarges compound (rat studies): unexpectedly and significantly more active
Relative Potency (antilog) [1]: 4.58
log relative potency for eyes with vacuoles or more advanced cataracts [1]: 0.6605
